In patent US12427179B2, “Compositions and methods for diagnosis and treatment of neurodegenerative diseases” (EPITRACKER, INC., priority 2019, dated 2025):

Experiments:
[1] = white powder; cited from earlier work
[2] = tested on: SAg: Venular endothelial cells, peripheral blood mononuclear cells (TCR ligands); experiment: BioMAP SAg system; type: cell-based, human
Description: (§1) Anti-inflammatory phenotypic profiling was conducted across 12 human primary cell-based systems as part of DiscoverX's BioMAP Diversity Plus program. These systems are designed to model complex human tissue and disease biology of the vasculature, skin, lung, and inflammatory tissues. Quantitative measurements of biomarker activities across this broad panel were used to assess each biochemical's anti-inflammatory activity at four concentrations ([…] and 2.2, 6.7 and 20 μM). […] Protein-based biomarkers from activated cell systems were measured and compared with controls. Biomarker activities were annotated when 2 or more consecutive concentrations change in the same directions relative to vehicle controls, were outside of the significance envelope and had at least one concentration with an effect size>20% (log 10 ratio)>0.1.
In this system, human primary peripheral blood mononuclear cells and human umbilical vein endothelial cells were stimulated with T-cell receptor ligands and incubated with the test agent, drug control, or vehicle control for 24 hours. A negative, non-stimulated system was also included. […] This antiproliferative activity was lost at higher concentrations (20 μM). In this system, T cell proliferation is considered a critical event driving an inflammatory response.
(§2) The Diversity PLUS panel allows test agent characterization in an unbiased way across a broad set of systems modeling various human disease states. These systems are designed to model complex human tissue and disease biology of the vasculature, skin, lung, and inflammatory tissues. Quantitative measurements of 148 biomarker activities across this broad panel, along with comparative analysis of biological activities from known bioactive agents, were used to predict and compare the efficacy and function of each selected compound at selected concentrations (6.7 and/or 20 μM). […]
(§3) Each test agent generates a signature BioMAP profile that is created from the changes in protein biomarker readouts within individual system environments. Biomarker readouts (7-17 per system) are selected for therapeutic and biological relevance, are predictive for disease outcomes or specific drug effects and are validated using agents with known mechanism of action (MoA). Each readout is measured quantitatively by immune-based methods that detect protein (e.g., ELISA) or functional assays that measure proliferation and viability. BioMAP readouts are diverse and include cell surface receptors, cytokines, chemokines, matrix molecules and enzymes. In total, the Diversity PLUS panel contains 148 biomarker readouts that capture biological changes that occur within the physiological context of the particular BioMAP system. […]

[3] = tested on: MyoF: Lung fibroblasts (TGFβ, TNFα); experiment: BioMAP MyoF system; type: cell-based, human; details: at the compound's active concentration
Description: (§4) The Diversity PLUS panel allows test agent characterization in an unbiased way across a broad set of systems modeling various human disease states. These systems are designed to model complex human tissue and disease biology of the vasculature, skin, lung, and inflammatory tissues. Quantitative measurements of 148 biomarker activities across this broad panel, along with comparative analysis of biological activities from known bioactive agents, were used to predict and compare the efficacy and function of each selected compound at selected concentrations (6.7 and/or 20 μM).
(§5) BioMAP systems are constructed with one or more primary cell types from healthy human donors, with stimuli (such as cytokines or growth factors) added to capture relevant signaling networks that naturally occur in human tissue or pathological conditions. Vascular biology is modeled in both a Th1 (3C system) and a Th2 (4H system) inflammatory environment, as well as in a Th1 inflammatory state specific to arterial smooth muscle cells (CASM3C system). Additional systems recapitulate aspects of the systemic immune response including monocyte-driven Th1 inflammation (LPS system) or T cell stimulation (SAg system), chronic Th1 inflammation driven by macrophage activation (lMphg system) and the T cell-dependent activation of B cells that occurs in germinal centers (BT system). The BE3C system (Th1) and the BF4T system (Th2) represent airway inflammation of the lung, while the MyoF system models myofibroblast-lung tissue remodeling. Lastly, skin biology is addressed in the KF3CT system modeling Th1 cutaneous inflammation and the HDF3CGF system modeling wound healing.
as §3
(§6) Activated BioMAP systems were incubated with each compound for 24 to 72 hours. Protein-based biomarkers from activated cell systems were measured and compared with non-treated control systems.

[4] = tested on: HDF3CGF: Dermal fibroblasts; experiment: BioMAP HDF3CGF system; type: cell-based, human; details: at the compound's active concentration
Description: as §4, §5
Each test agent generates a signature BioMAP profile that is created from the changes in protein biomarker readouts within individual system environments. Biomarker readouts (7-17 per system) are selected for therapeutic and biological relevance, are predictive for disease outcomes or specific drug effects and are validated using agents with known mechanism of action (MoA). Each readout is measured quantitatively by immune-based methods that detect protein (e.g., ELISA) or functional assays that measure proliferation and viability. BioMAP readouts are diverse and include cell surface receptors, cytokines, chemokines, matrix molecules and enzymes. In total, the Diversity PLUS panel contains 148 biomarker readouts that capture biological changes that occur within the physiological context of the particular BioMAP system. Specific BioMAP activities have been correlated to in vivo biology, and multiparameter BioMAP profiles have been used to distinguish compounds based on MoA and target selectivity across diverse physiological systems.
as §6

[5] = tested on: BE3C: Bronchial epithelial cells (IL-1β, IFNγ, TNFα); experiment: BioMAP BE3C system; type: cell-based, human; details: at the compound's active concentration
Description: The Diversity PLUS panel allows test agent characterization in an unbiased way across a broad set of systems modeling various human disease states. These systems are designed to model complex human tissue and disease biology of the vasculature, skin, lung, and inflammatory tissues.
as §5
(§7) Each test agent generates a signature BioMAP profile that is created from the changes in protein biomarker readouts within individual system environments. Biomarker readouts (7-17 per system) are selected for therapeutic and biological relevance, are predictive for disease outcomes or specific drug effects and are validated using agents with known mechanism of action (MoA). Each readout is measured quantitatively by immune-based methods that detect protein (e.g., ELISA) or functional assays that measure proliferation and viability. BioMAP readouts are diverse and include cell surface receptors, cytokines, chemokines, matrix molecules and enzymes.
as §6

[6] = tested on: BT: Peripheral blood mononuclear cells, B cells (α-IgM, TCR ligands); experiment: BioMAP BT system; type: cell-based, human; details: BT system; at the compound's active concentration
Description: as §1
In the first system, human primary peripheral blood mononuclear cells and venular endothelial cells were stimulated with lipopolysaccharide (LPS) and incubated with the test agent, drug control, or vehicle control for 24 hours. In the second system, peripheral blood mononuclear cells and B cells were stimulated with α-IgM and T cell receptor ligands and incubated with the test agent, drug control, or vehicle control for 24 hours. In both systems, a negative, non-stimulated system was also included.
as §4, §5, §3

[7] = tested on: human primary cell-based systems; experiment: BioMAP Diversity PLUS panel, phenotypic profiling; details: tested at 6.7 and/or 20 μM; 24 to 72 hours
Description: as §1, with “controls.” for “controls. Biomarker activities were annotated when 2 or more consecutive concentrations change in the same directions relative to vehicle controls, were outside of the significance envelope and had at least one concentration with an effect size>20% (log 10 ratio)>0.1.”
as §4, §5
Each test agent generates a signature BioMAP profile that is created from the changes in protein biomarker readouts within individual system environments. Biomarker readouts (7-17 per system) are selected for therapeutic and biological relevance, are predictive for disease outcomes or specific drug effects and are validated using agents with known mechanism of action (MoA). Each readout is measured quantitatively by immune-based methods that detect protein (e.g., ELISA) or functional assays that measure proliferation and viability. BioMAP readouts are diverse and include cell surface receptors, cytokines, chemokines, matrix molecules and enzymes. In total, the Diversity PLUS panel contains 148 biomarker readouts that capture biological changes that occur within the physiological context of the particular BioMAP system.
as §6

[8] = tested on: KF3CT: Keratinocytes, dermal fibroblasts; experiment: BioMAP KF3CT system; type: cell-based, human; details: at the compound's active concentration
Description: as §2
as §7, with “enzymes. […]” for “enzymes.”

N[C@@H](CC(O)C(=O)O)C(=O)O (some centres unmarked) [4-hydroxyglutamate]
Stability of the pure powder [1]: stable at room temperature
T cell antiproliferative activity ([2]; higher concentrations (20 μM), 24 hours): lost

Nc1ncnc2c1ncn2[C@@H]1O[C@H](CSCC[C@H](N)C(=O)O)[C@@H](O)[C@H]1O [S-adenosylhomocysteine (SAH), S-adenosylhomocysteine]
Alpha-SM actin, log10 reduction vs nontreated controls [3]: −0.18 log10
Collagen I, log10 reduction vs nontreated controls [3]: −0.15 log10
Collagen III, log10 reduction vs nontreated controls [3]: −0.27 log10
VCAM-1, log10 reduction vs nontreated controls [3]: −0.12 log10
CXCL10, log10 reduction vs nontreated controls [4]: −0.19 log10
CXCL11, log10 reduction vs nontreated controls [4]: −0.25 log10
Collagen III, log10 reduction vs nontreated controls [4]: −0.21 log10
Fibroblast proliferation, log10 reduction vs nontreated controls [4]: −1.10 log10
M-CSF, log10 reduction vs nontreated controls [4]: −0.19 log10
MCP-1, log10 reduction vs nontreated controls [4]: −0.14 log10
TIMP-1, log10 reduction vs nontreated controls [4]: −0.14 log10
VCAM-1, log10 reduction vs nontreated controls [4]: −0.17 log10
CXCL11, log10 reduction vs nontreated controls [5]: −0.13 log10
HLA-DR, log10 reduction vs nontreated controls [5]: −0.13 log10
IL-8, log10 reduction vs nontreated controls [5]: −0.13 log10
MMP-9, log10 reduction vs nontreated controls [5]: −0.24 log10
Secreted IgG, log10 reduction vs nontreated controls [6]: −0.29 log10
T cell proliferation, log10 reduction vs nontreated controls ([2]; SAg system, at the compound's active concentration): −0.21 log10
Active concentrations [7]: 20 µM
MMP-9, log10 reduction vs nontreated controls [8]: −0.10 log10
PAI-1, log10 reduction vs nontreated controls [8]: −0.28 log10
